Entries after “also recorded” stand apart in the source; their conditions may differ. Like-named read-outs stand apart in the source and are kept apart here.
Legend:
[1] = test system: T. cruzi-infected skeletal myoblasts (intracellular amastigotes); experiment: Hit cross-validation in T. cruzi-infected mammalian cells (image-based assay); type: cell-based, Trypanosoma cruzi
Experimental: Bovine embryo skeletal muscle cells or mouse C2C12 myoblasts (ATCC#CRL-1772) used in the cross-validation assay, were cultivated respectively in RPMI 1640 medium supplemented with 5% horse serum and Dulbecco's Modified Eagle's Medium H-21 containing 4.5 g/l glucose (DMEM H-21) (Cell Culture Facility, UCSF), supplemented with 5% fetal bovine serum (FBS) (Sigma Chemical Co., St. Louis, MO, USA), 25 mM HEPES, 2 mM L-glutamine, 100 U/ml penicillin, 100 µg/ml streptomycin. T. cruzi CAI-72 trypomastigotes were obtained from supernatant of infected cultures 4 to 7 days post-infection. Cultures were maintained at 37°C in an atmosphere of 5% CO2. To harvest parasites, the supernatant of infected cultures containing released trypomastigotes was collected and centrifuged at 600 rpm for 5 min to remove cell debris; the pellet was then discarded and the trypomastigotes remaining in the media were concentrated by spinning the culture tubes at 3300 rpm for 15 minutes. The parasite pellet was re-suspended in 2–5 ml of fresh media. Trypomastigote concentration was determined using a Neubauer hemocytometer.
(§1) Compound cross-validation in T. cruzi infected skeletal myoblasts (bovine embryo skeletal muscle or C2C12 lineage) was performed according to the protocol adapted from Engel and co-authors. Compounds stored as 10 mM stocks in DMSO were freshly diluted immediately prior to use. […] To prepare plates for the assay, skeletal myoblasts cultured in […] flasks were washed once with phosphate buffered saline (PBS) and then incubated with 0.25% trypsin in PBS for 1–3 minutes for detachment. The trypsin solution was removed and myoblasts were released from the flask bottom. Fresh medium was added and cell concentration was determined using a Neubauer hemocytometer. Myoblasts in 50 µl of culture medium were transferred to the clear-bottom wells of black 96-well plates (Greiner Bio-One, #655090) at a density of 1500 cells/well and infected with 50 µl trypomastigote culture at 7500 parasites/well (1∶5 ratio). The cells were allowed to adhere and spread for 24 h in the incubator before the media was removed and 100 µl of fresh medium containing 0, 0.04, 0.12, 0.37, 1.10, 3.30 or 10 µM of test compound was added to each well, followed by 72 h incubation at 37°C in an atmosphere of 5% CO2. Posaconazole was used as a positive control at the same concentrations as the test compounds. The cells were then fixed by adding 100 µl/well of 8% formaldehyde in PBS, resulting in a 4% working concentration of formaldehyde. To stain the nucleus of the host cell and the nucleus and kinetoplast of parasites, cell membranes were first permeabilized by washing once with 100 µl of 0.1% Triton X-100 in PBS, then treated for 1 h with 0.2 µg/ml of the fluorescent DNA dye, 4,6-diamidino-2-phenylindole (DAPI), followed by one wash with PBS. The fixed plates were kept at 4°C and protected from light until images were acquired.
(§2) Plates were allowed to equilibrate to room temperature and images were acquired by the IN Cell Analyzer 2000 (GE Healthcare) with a 20× objective, 5 fields per well, with 350/50 nm and 460/40 nm fluorescent excitation and emission filters. In the absence of drug cytotoxicity, at least 800 cells were imaged and counted per well. The images were processed and analyzed by IN Cell Analyzer Developer 1.6 software. The size parameters used to segment host and parasite organelles were 125 µm^2 for host nucleus, and 1–2 µm^2 for parasite nucleus/kinetoplast. Since DAPI also strongly stains host heterochromatin regions that display as shapes resembling parasites ( Figure 3 ), particles co-localized to host nuclei were excluded from quantification, while parasite aggregates near the host nucleus were counted as infected cells.

T. cruzi CYP51 [2] = target: T1, T. cruzi CYP51 (Trypanosoma cruzi, UniProt Q7Z1V1); experiment: Low throughput UV-vis binding assay; settings: read-out: KD
T1 construct: had the first 21 residues upstream of K22 replaced with the fragment MAKKKKK; His6 (C); made in house
Experimental: Hit validation in the low throughput UV-vis binding assay was performed according to a previously published but somewhat modified protocol. UV-vis absorption spectra were recorded on a Cary scanning spectrophotometer (Varian) in the 1-cm path length quartz cuvette at 23°C in 100 mM potassium phosphate buffer, pH 7.5, containing 10% glycerol, with CYP51 concentration of 0.5 µM. Compound solutions used for titration were prepared in DMSO at 100 µM and added in 2-µl aliquots to each 3 ml sample using a P2 pipetman (Gilson). Binding affinity of hits was estimated using the quadratic tight-binding equation [27]: […]
where Aobs is the absorption shift determined at any ligand concentration; Amax is the maximal absorption shift obtained at saturation; KD is dissociation constant for the inhibitor-enzyme complex; S is the ligand concentration; Et is the total enzyme concentration.

[3] = test system: host cell (skeletal myoblasts, bovine embryo skeletal muscle or C2C12); experiment: Host cell toxicity in the cross-validation assay; type: cell-based; settings: host cells in cross-validation assay, up to 10 µM
Experimental: as §1
as §2, with “cells. Numbers of host cells and intracellular amastigotes were determined based on host cell and parasite nucleus and parasite kinetoplast quantification, providing a measure of growth inhibition during the first 72 h of post-infection treatment compared to untreated controls.” for “cells.”
^aToxicity was assessed as the highest percentage of host cell growth inhibition caused by compound treatment. Scores are assigned as 1-<20%; 2-21-30%; 3- 31-40%; 4-41-50% and 5->50% growth inhibition.

T. cruzi CYP51 [4] = target: T1, T. cruzi CYP51; experiment: Primary HTS in two-wavelength mode; type: binding; settings: 2 µM CYP51, 528 measurements
[5] = test system: sterol biosynthesis in T. cruzi amastigotes; experiment: Lipid analysis of T. cruzi amastigotes (GC-MS of membrane sterols); type: cell-based, Trypanosoma cruzi; settings: amastigotes in C2C12 myoblasts, 24 h drug treatment, concentrations 5x below cidal; posaconazole 100 nM
Experimental: To grow intracellular amastigotes for lipid analysis, C2C12 mouse skeletal myoblasts (4×10^6 cells) cultured in 150 cm^2 flasks as described above were infected with 80×10^6 trypomastigotes for 24 h. The cultures were treated with test compounds 72 h post-infection at concentrations 5× below cidal to avoid completely killing the parasites. Posaconazole at 100 nM was used as a positive control. […] Cells were harvested 96 h post-infection and after 24 h of drug treatment. Cell detachment was initiated by brief treatment with 10 ml of 0.25% trypsin in PBS, followed promptly by replacement with 10 ml of fresh media containing FBS. Harvested cells were washed 3× with 25 ml of PBS to remove FBS and released trypomastigotes. The suspension of infected cells was then transferred to a glass tube and centrifuged at 2000 rpm for 5 min. After washing with PBS, 2 ml of chloroform-methanol solution (2∶1 ratio) was added to re-suspend the cell pellet. Organic solvents were then evaporated under N2 flow, allowing the pellet to dry.
For total lipid extraction, the dry cell pellet was treated with 2 ml chloroform for 24 h. Polar molecules were removed by washing the organic phase 3× with 3 ml water. The organic phase containing the sterols was subsequently dried on an evaporator under N2 flow. The lipids were re-suspended in 2 ml of chloroform-methanol (9∶1 ratio), washed again 3× with 3 ml water, dried under N2 flow and re-suspended in acetonitrile. After an additional wash 3× with 3 ml water, the acetonitrile was dried under an N2 stream. Extracted dry sterols were re-dissolved in hexane and derivatized with N,N-bis(trimethylsilyl)-2,2,2-trifluoroacetamide (BSTFA) (Pierce) by incubating at 37°C for at least 2 hours. Sterols as their trimethylsilyl (TMS) derivatives were analyzed by gas chromatography and mass spectrometry (GC-MS). GC-MS analysis and lipid identification were performed as described previously.

[6] = test system: T. cruzi trypomastigote strain CAI/72 in C2C12 myoblasts; experiment: Trypanocidal assay; type: cell-based, Trypanosoma cruzi; settings: 14 days treatment, then one week compound-free
Experimental: Compounds cross-validated with low EC50 against T. cruzi infected cells were further evaluated to determine the “cidal” concentration at which host cells are effectively cured, using the protocol adapted from Engel et al 1998 [30]. To allow long term treatment and avoid culture overgrowth, C2C12 myoblasts were seeded at low density in 96 well plates (10^3 cells/well) and cultured with DMEM H-21 medium supplemented with low FBS concentration (1%), 25 mM HEPES, 2 mM L-glutamine, 100 U/ml penicillin and 100 µg/ml streptomycin. The cells were infected with T. cruzi trypomastigote strain CAI/72 (5 parasites/cell) for 24 h and treated with 0, 0.04, 0.12, 0.37, 1.10, 3.30 or 10 µM test compounds in 100 µl of medium for 14 days. During the course of treatment, medium supplemented with test compounds was replaced every 72 h. After 14 days, drug pressure was withdrawn and incubation continued in the compound-free medium for another week, during which cultures were monitored for reappearance of T. cruzi trypomastigotes in the supernatant.

T. cruzi CYP51 [7] = target: T1, T. cruzi CYP51; experiment: HTS spectral-mode binding screen, type II difference spectra scored 0-5
[8] = T. cruzi-infected myoblasts, 72 h treatment, read-out: EC50 against T. cruzi parasites in HTS assay used to rank order the hits
[9] = Trypanosoma cruzi, Myoblast, 72 h, T. cruzi-infected myoblasts, 72 h treatment, repurchased compound, read-out: EC50 averaged from two independent cross-validation assays for individually repurchased hits
[10] = Trypanosoma cruzi, Myoblast, 72 h, T. cruzi-infected myoblasts, 72 h treatment, read-out: EC50 against T. cruzi parasites in HTS assay used to rank order the hits
[11] = UV-vis titration, 0.5 µM CYP51, quadratic tight-binding equation, lower limit of method ~5 nM
[12] = spectral mode, four serial dilutions 2 µM to 12.5 µM, 2 µM CYP51
[13] = type II difference spectra scored 0-5, second highest rated hit compound cluster
[14] = Trypanosoma cruzi, Myoblast, 72 h, read-out: EC50 against T. cruzi parasites in HTS assay used to rank order the hits

T1 sequence (Q7Z1V1 15-481, looked up, natural form): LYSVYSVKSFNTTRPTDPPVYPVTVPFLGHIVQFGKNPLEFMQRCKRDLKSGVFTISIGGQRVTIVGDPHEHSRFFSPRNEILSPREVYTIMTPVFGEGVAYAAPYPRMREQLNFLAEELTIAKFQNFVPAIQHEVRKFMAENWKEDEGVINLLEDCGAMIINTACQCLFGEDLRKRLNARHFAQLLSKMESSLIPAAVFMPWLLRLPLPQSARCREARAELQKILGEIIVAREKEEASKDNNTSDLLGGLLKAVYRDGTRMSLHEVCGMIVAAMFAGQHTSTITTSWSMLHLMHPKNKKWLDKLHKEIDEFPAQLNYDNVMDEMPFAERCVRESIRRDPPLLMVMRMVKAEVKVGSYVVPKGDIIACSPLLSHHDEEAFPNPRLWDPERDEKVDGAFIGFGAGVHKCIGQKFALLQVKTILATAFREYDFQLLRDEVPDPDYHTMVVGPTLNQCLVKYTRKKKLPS

| SMILES | EC50 [1, 8] | EC50 [1, 9] | EC50 [1, 10] | Kd (T. cruzi CYP51 [2]; [11]) | Toxicity score (highest percentage of host cell growth inhibition) [3] | HTS binding score (T. cruzi CYP51 [7]; [12]) | other results |
| --- | --- | --- | --- | --- | --- | --- | --- |
| Clc1ccc(OCCCCCCn2ccnc2)cc1 [Compound 11] | 948 nM | 760 nM | 950 nM | 65 ± 15 nM | 2 (2-21-30%) |  |  |
| CC1CCC(C(=O)NC(Cc2c[nH]c3ccccc23)C(=O)Nc2ccncc2)CC1 (stereo not drawn) [reference, α-[(4-methylcyclohexyl)carbonylamino]-N-4-pyridinyl-1H-indole-3-propanamide] |  |  |  |  |  |  | ΔA = A425−A390 (T. cruzi CYP51 [4]): 0.043±0.004 |
| CC[C@@H]([C@H](C)O)n1ncn(-c2ccc(N3CCN(c4ccc(OC[C@@H]5CO[C@@](Cn6cncn6)(c6ccc(F)cc6F)C5)cc4)CC3)cc2)c1=O [posaconazole, reference compound] |  |  |  |  |  |  | Effect on membrane sterol composition by GC-MS [5]: lanosterol (f) and eburicol (h) dominated the GC-MS traces; also recorded: fecosterol (e) was completely inhibited; EC50 ([1]; Trypanosoma cruzi, Myoblast, 72 h, T. cruzi-infected myoblasts, 72 h treatment, read-out: EC50 in image-based HTS cross-validation assay): 1 nM; Trypanocidal concentration [6]: 0.6 nM |
| CC1(C)CC(=O)C2=C(C1)c1c(ccc3ccccc13)NC2c1cccnc1 (stereo not shown) [Compound 19] |  |  | 2500 nM |  | 3 (3- 31-40%) | 5 | Kd (T. cruzi CYP51 [2]; T. cruzi CYP51): ≤ 5 nM; HTS binding score (T. cruzi CYP51 [7]; [13]): 5 |
| Brc1ccc(OCCCCCCn2ccnc2)cc1 [Compound 1a] |  | 930 ± 100 nM |  | ≤ 5 nM |  |  |  |
| Brc1ccccc1OCCCCn1ccnc1 [Compound 1b] |  | 4580 ± 2000 nM |  | 66 ± 29 nM |  |  |  |
| O=C(c1ccc(Cl)cc1Cl)C(c1cccnc1)C(O)C(Cl)(Cl)Cl (stereo not shown) [Compound 34] |  |  |  |  | 2 (2-21-30%) | 5 | EC50 [1, 14]: 6870 nM |
| COC(=O)c1ccc(-c2ccncc2)s1 [Compound 21] |  |  |  |  | 2 (2-21-30%) | 4 | EC50 [1, 14]: 2740 nM |
| COc1ccc(S(=O)(=O)NC(C)c2ccc(-n3ccnc3)cc2)c2ccccc12 (stereo not shown) [Compound 3] | 484 nM | 200 nM | 480 nM | ≤ 5 nM | 2 (2-21-30%) |  |  |
| Cc1cccc(Nc2nc(-c3ccncc3)cs2)n1 [Compound 9] | 914 nM | 580 nM | 910 nM | ≤ 5 nM | 1 (1-<20%) | 4 |  |
| CCOC(=O)C1=C(N)Oc2ccc3ccccc3c2C1c1cccnc1 (stereo not shown) [Compound 51] |  |  | 8580 nM |  | 1 (1-<20%) | 2 | HTS binding score (T. cruzi CYP51 [7]; [13]): 2 |
| COC(=O)C1=C(N)Oc2cc(C)n(CCc3ccc(OC)c(OC)c3)c(=O)c2C1c1cccnc1 (stereo not shown) [Compound 6, methyl 2-amino-6-[2-(3,4-dimethoxyphenyl)ethyl]-7-methyl-5-oxo-4-pyridin-3-yl-5,6-dihydro-4H-pyrano[3,2-c]pyridine-3-carboxylate] | 614 nM |  | 610 nM | 76 nM | 1 (1-<20%) | 3 | EC50 ([1]; Trypanosoma cruzi, Myoblast, in Mus musculus, T. cruzi amastigotes cultured in mouse myoblasts, averaged from two independent assays, read-out: EC50 in low throughput validation (repurchased hit)): 80 nM; HTS binding score (T. cruzi CYP51 [7]; [13]): 3 |
| Cc1ccc(NC(=O)c2sc3nc(-c4ccncc4)ccc3c2N)cc1Cl [Compound 22] |  |  |  |  | 2 (2-21-30%) | 2 | EC50 [1, 14]: 2860 nM |
